{"source": "patent US20220265635A1", "about": "“TREATMENT OF NEUROLOGICAL DISEASE” (Aclipse One Inc., priority 2018, published 2022)", "key": {"[1]": {"test_system": "Nrf2 and HSF1 target genes", "assay": "Example 4 target engagement qPCR of cortex tissue", "assay_type": "in vivo, mouse", "details": "normalized to Gapdh", "experimental": "This in vivo pharmacology study was designed to test the efficacy of (6aS)-6-methyl-5,6,6a,7-tetrahydro-4H-dibenzo[de,g]quinoline-10,11-diol on the progression of motor and cognitive decline in the TDP-43^Q331K mouse model. In addition, tissue was collected at the end of the experiment for target engagement (gene expression) analysis of Nrf2 and HSF1 target genes.\n(§1) Following genotyping, transgenic females were block randomized into three different dosing groups: vehicle once daily, 2.5 mg/kg (6aS)-6-methyl-5,6,6a,7-tetrahydro-4H-dibenzo[de,g]quinoline-10,11-diol twice daily and 5 mg/kg (6aS)-6-methyl-5,6,6a,7-tetrahydro-4H-dibenzo[de,g]quinoline-10,11-diol once daily. The doses were selected based on results of previous internal studies. Animals were weighed daily before dosing and dosed subcutaneously at 10 ml/kg with a solution of 0.5 mg/ml (6aS)-6-methyl-5,6,6a,7-tetrahydro-4H-dibenzo[de,g]quinoline-10,11-diol for the 5 mg/kg dose and 0.25 mg/ml for the 2.5 mg/kg dose. Where animals were dosed twice a day, the doses were at least 6 hours apart and the dosing solution was freshly made for the second dose of the day.\n(§2) The study was designed with two main cohorts of mice. One cohort was dosed from 25 days of age until 6 months of age and mice had behavioral testing throughout the study and consisted of 14 mice per group. The other satellite cohort was dosed from 25 days of age until 3 months of age, with no behavioral testing and consisted of 6 mice per group for target engagement and histological assessment. Behavioral tests that were carried out during the experiment were: accelerated rotarod test, gait analysis, and electrophysiology.\nTissue was collected at 24 hours after the final morning dose. All animals were overdosed with an intraperitoneal injection of pentibarital (JML, M042) at the time of tissue collection (2.5 ml/kg). In the 6 month cohort (n=14), 7 animals per group were perfused to fix tissue for histology. For these animals, once animals had lost pedal reflex, the chest cavity was opened and 10 ml of PBS was perfused via the heart, followed by 10 ml of 4% PFA. Brain and spinal cord were extracted and stored in 4% PFA overnight before being changed to PBS. The lumbar section of the spinal cord was dissected and embedded. For the remaining 7 animals per group, once the animals had lost pedal reflex, blood was extracted via a cardiac puncture technique. The blood was collected and stored in 1 ml of RNALater (ThermoFisher). Spinal cords were removed and the upper section of spinal cord was snap frozen in liquid nitrogen for protein analysis, while the lower section was stored in RNALater and stored at −20° C. Cortex was removed and dissected into four parts, the front left segment was stored in RNALater, while the three other sections were snap frozen in liquid nitrogen.\nFor the 3 month cohort, tissue was collected in a similar way to the snap frozen tissue for 6 month cohort, however where tissue was stored in RNALater for the 6 month cohort, it was processed for RNA extraction immediately in the 3 month cohort.\nRNA was extracted from lower spinal cord and cortex using the RNeasy lipid tissue mini kit (Qiagen, 74804) following the manufactures protocol. Briefly tissue was homogenized in a small volume (150 μl) of QIAzol using a hand-held homogenizer in a fume hood. Once homogenized, the total volume of QIAzol was increased to 1 ml. Samples were incubated at room temperature for 5 minutes after which 200 μl of chloroform (Honeywell) was added and samples were shaken vigorously for 15 seconds. Mixed samples were then incubated at room temperature for 3 minutes then centrifuged at 12,000g for 15 minutes at 4° C. in a bench top microcentrifuge.\nThe upper aqueous phase of the sample was transferred to a fresh labelled tube and 1 volume of 70% ethanol was added. Samples were vortexed and 700 μl of sample was transferred to RNeasy mini spin columns attached to 2 ml collection tubes. […]"}, "[2]": {"assay": "Example 4 mouse weights in TDP-43^Q331K mouse model", "assay_type": "in vivo", "details": "TDP-43^Q331K mice", "experimental": "as §1, §2\nAnimals were weighed daily before dosing to calculate dose volume. […]"}, "TDP-43^Q331K mouse model [3]": {"test_system": "TDP-43^Q331K mouse model", "assay": "Example 4 electrophysiology: repetitive stimulation", "assay_type": "in vivo", "details": "TDP-43^Q331K mice", "experimental": "as §1, §2\n(§3) Electrophysiological assessment of compound action muscle potential (CMAP) and repetitive stimulation was carried out at 6 weeks, 3 months and 6 months of age.\nMice were anesthetized using gaseous isoflurane and then maintained under gaseous anesthesia using a nose cone for the duration of the experiment. Body temperature was maintained with a heat pad. The fur from the lower left limb was removed using an electric razor followed by hair removal cream in order to allow skin contact of the ring electrodes. Ring electrodes were covered in electrical paste and were placed around the ankle and thigh area of the shaved limb. […]\nRepetitive stimulation was carried out after the CMAP was calculated. […]"}, "TDP-43^Q331K mouse model [4]": {"test_system": "TDP-43^Q331K mouse model", "assay": "Example 4 electrophysiology: compound muscle action potential (CMAP)", "assay_type": "in vivo", "details": "TDP-43^Q331K mice", "experimental": "as §1, §2, §3\nMice were anesthetized using gaseous isoflurane and then maintained under gaseous anesthesia using a nose cone for the duration of the experiment. Body temperature was maintained with a heat pad. The fur from the lower left limb was removed using an electric razor followed by hair removal cream in order to allow skin contact of the ring electrodes. Ring electrodes were covered in electrical paste and were placed around the ankle and thigh area of the shaved limb. The rings were tightened so that there were no air gaps between the skin and electrodes but not so tight that blood flow was altered. A grounding electrode was placed into the base of the tail and stimulating electrodes were placed higher on the leg as near as possible to the sciatic nerve.\nCMAPs were acquired by pulsing an electrical wave of […] duration to the sciatic notch. The position of the electrodes was tested prior to the final pulse in order to make sure they were placed correctly by visualizing the outcome of the pulse. The stimulation current was then increased until no further increase in CMAP was seen."}, "dopamine receptors": {"test_system": "dopamine receptors", "details": "background description; cited from earlier work"}, "NRF2": {"test_system": "NRF2", "assay": "Example 1 in vivo pharmacodynamic study via subcutaneous dosing: expression of genes upregulated by NRF2 activation", "set-up": "species or system mouse", "details": "wildtype mice", "experimental": "Wildtype mice (3 per group) were dosed subcutaneously at 0, 0.5, 1.5, 5 and 10 mg/kg (6aS)-6-methyl-5,6,6a,7-tetrahydro-4H-dibenzo[de,g]quinoline-10,11-diol hydrochloride for 7 days once daily. One animal in the 10 mg/kg dosing group was actually dosed 15 mg/kg on Day 1. To prepare the dosing solutions, (6aS)-6-methyl-5,6,6a,7-tetrahydro-4H-dibenzo[de,g]quinoline-10,11-diol was pre-weighed into bijous and stored in foil."}, "[5]": {"details": "3 months, 2.5 mg/kg dosing group"}, "[6]": {"details": "5 mg/kg s.c. once daily 7 days, 24 hours post final dose, compared to Gapdh"}, "[7]": {"details": "10 mg/kg s.c. once daily 7 days, 24 hours post final dose, compared to Actb"}}, "data": [{"smiles": "CN1CCc2cccc3c2[C@@H]1Cc1ccc(O)c(O)c1-3", "note": "[(6aS)-6-methyl-5,6,6a,7-tetrahydro-4H-dibenzo[de,g]quinoline-10,11-diol]", "values": [{"measurement": "GSR relative mRNA level compared to vehicle", "setting": "[1]; [5]", "value": "upregulation"}, {"measurement": "Nqo1 relative mRNA level compared to vehicle", "setting": "[1]; [5]", "value": "upregulation"}, {"measurement": "Osgin1 relative mRNA level compared to vehicle", "setting": "[1]; [5]", "value": "upregulation"}, {"measurement": "GSR relative mRNA level compared to vehicle", "setting": "[1]; 3 months, 5 mg/kg dosing group", "value": "significant upregulation"}, {"measurement": "Hspa1a relative mRNA level compared to vehicle", "setting": "[1]; 3 months, 5 mg/kg dosing group", "value": "significant upregulation"}, {"measurement": "Nqo1 relative mRNA level compared to vehicle", "setting": "[1]; 3 months, 5 mg/kg dosing group", "value": "significant upregulation"}, {"measurement": "Sqstm1 relative mRNA level compared to vehicle", "setting": "[1]; 3 months, 5 mg/kg dosing group", "value": "significant upregulation"}, {"measurement": "Hspa1a relative mRNA level compared to vehicle", "setting": "[1]; 6 months, 2.5 mg/kg twice daily", "value": "significant upregulation"}, {"measurement": "Hspa1a relative mRNA level compared to vehicle", "setting": "[1]; 6 months, 5 mg/kg daily", "value": "significant upregulation"}, {"measurement": "mouse weight compared to the vehicle dosing group", "setting": "[2]; 3-month cohort, either dosing group (2.5 mg/kg twice daily, 5 mg/kg once daily s.c.)", "value": "no significant difference"}, {"measurement": "mouse weight compared to the vehicle dosing group", "setting": "[2]; 6-month cohort, 2.5 mg/kg dosing group, from 121 days of age until the end of the study", "value": "significant decrease"}, {"measurement": "repetitive stimulation, between the dose groups", "setting": "TDP-43^Q331K mouse model [3]; 3 months", "value": "no significant difference"}, {"measurement": "repetitive stimulation response compared to the vehicle dosing group", "setting": "TDP-43^Q331K mouse model [3]; 6 months of age, 2.5 mg/kg dose group, stimulation numbers 5 and 7", "value": "significant increase"}, {"measurement": "repetitive stimulation response (percentage of the first stimulation) compared to vehicle", "setting": "TDP-43^Q331K mouse model [3]; 6 weeks of age, 2.5 mg/kg twice daily, final stimulation, significant difference", "value": "larger decrease in response"}, {"measurement": "relative CMAP at 6 months (based on individual CMAP at 3 months) compared to the vehicle group", "setting": "TDP-43^Q331K mouse model [4]; 2.5 mg/kg dosing group", "value": "significant improvement"}, {"measurement": "relative CMAP at 6 months (based on individual CMAP at 3 months) compared to the vehicle group", "setting": "TDP-43^Q331K mouse model [4]; 5 mg/kg dosing group", "value": "significant improvement"}, {"measurement": "CMAP compared to the vehicle dosing group", "setting": "TDP-43^Q331K mouse model [4]; 3 months of age, 5 mg/kg dosing group", "value": "significant decrease"}, {"measurement": "CMAP compared to vehicle dosed animals", "setting": "TDP-43^Q331K mouse model [4]; 6 months of age, both dosing groups (2.5 mg/kg twice daily, 5 mg/kg once daily)", "value": "significant increase"}, {"measurement": "CMAP, between the different dosing groups", "setting": "TDP-43^Q331K mouse model [4]; 6 weeks of age", "value": "no significant difference"}, {"measurement": "activity on dopamine receptors (in words)", "setting": "dopamine receptors", "value": "weak dopamine antagonist"}, {"measurement": "Gclm gene induction", "setting": "NRF2; 5 mg/kg s.c. once daily 7 days, 6 hours post final dose, compared to Gapdh", "value": 1.5, "unit": "fold"}, {"measurement": "Gclm gene induction", "setting": "NRF2; [6]", "value": 1.5, "unit": "fold"}, {"measurement": "Nqo1 gene induction", "setting": "NRF2; [6]", "value": 1.3, "unit": "fold"}, {"measurement": "Gclm gene induction", "setting": "NRF2; 10 mg/kg s.c. once daily 7 days, 6 hours post final dose, compared to Actb", "value": 1.4, "unit": "fold"}, {"measurement": "Gclm gene induction", "setting": "NRF2; [7]", "value": 1.2, "unit": "fold"}, {"measurement": "NRF2-responsive gene induction", "setting": "NRF2; [7]", "value": 1.4, "unit": "fold"}]}]}
